{"source": "patent US20250084040A1", "about": "“SUBSTITUTED HETEROCYCLES AS c-MYC TARGETING AGENTS” (Northwestern University, priority 2018, published 2025)", "tested_on": "NCI 60 cell panel", "assay": "NCI 60 Cell One-Dose Screen", "type": "cell-based, human", "settings": "1.00E−5 Molar", "description": "General Description. As of early 2007 all compounds submitted to the NCI 60 Cell screen are tested initially at a single high dose (10^-5 M) in the full NCI 60 cell panel. Only compounds which satisfy pre-determined threshold inhibition criteria in a minimum number of cell lines will progress to the full 5-dose assay. The threshold inhibition criteria for progression to the 5-dose screen was selected to efficiently capture compounds with anti-proliferative activity based on careful analysis of historical DTP screening data. The threshold criteria may be updated as additional data becomes available.\nInterpretation of One-Dose Data. The One-dose data will be reported as a mean graph of the percent growth of treated cells and will be similar in appearance to mean graphs from the 5-dose assay. The number reported for the One-dose assay is growth relative to the no-drug control, and relative to the time zero number of cells. This allows detection of both growth inhibition (values between 0 and 100) and lethality (values less than 0). This is the same as for the 5-dose assay, described below. For example, a value of 100 means no growth inhibition. A value of 40 would mean 60% growth inhibition. A value of 0 means no net growth over the course of the experiment. A value of −40 would mean 40% lethality. A value of −100 means all cells are dead. Information from the One-dose mean graph is available for COMPARE analysis.\nThe human tumor cell lines of the cancer screening panel are grown in RPMI 1640 medium containing 5% fetal bovine serum and 2 mM L-glutamine. For a typical screening experiment, cells are inoculated into 96 well microtiter plates in 100 μL at plating densities ranging from 5,000 to 40,000 cells/well depending on the doubling time of individual cell lines. After cell inoculation, the microtiter plates are incubated at […], 5% CO2, 95% air and 100% relative humidity for 24 h prior to addition of experimental drugs.\nAfter 24 h, two plates of each cell line are fixed in situ with TCA, to represent a measurement of the cell population for each cell line at the time of drug addition (Tz). Experimental drugs are solubilized in dimethyl sulfoxide at 400-fold the desired final maximum test concentration and stored frozen prior to use. At the time of drug addition, an aliquot of frozen concentrate is thawed and diluted to twice the desired final maximum test concentration with complete medium containing 50 µg/ml gentamicin. Additional four, 10-fold or ½ log serial dilutions are made to provide a total of five drug concentrations plus control. Aliquots of 100 μl of these different drug dilutions are added to the appropriate microtiter wells already containing 100 μl of medium, resulting in the required final drug concentrations.\nFollowing drug addition, the plates are incubated for an additional 48 h at 37° C., 5% CO2, 95% air, and 100% relative humidity. For adherent cells, the assay is terminated by the addition of cold TCA. Cells are fixed in situ by the gentle addition of 50 μl of cold 50% (w/v) TCA (final concentration, 10% TCA) and incubated for 60 minutes at 4° C. The supernatant is discarded, and the plates are washed five times with tap water and air dried. Sulforhodamine B (SRB) solution (100 μl) at 0.4% (w/v) in 1% acetic acid is added to each well, and plates are incubated for 10 minutes at room temperature. After staining, unbound dye is removed by washing five times with 1% acetic acid and the plates are air dried. Bound stain is subsequently solubilized with 10 mM trizma base, and the absorbance is read on an automated plate reader at a wavelength of 515 nm. For suspension cells, the methodology is the same except that the assay is terminated by fixing settled cells at the bottom of the wells by gently adding 50 μl of 80% TCA (final concentration, 16% TCA). […]"}
{"smiles": "Cn1nc(C(F)(F)F)cc1-c1ccc(OCc2ccc(Cl)cc2)c(-c2cc(C(F)(F)F)cc(C(F)(F)F)c2)c1O", "note": "[NSC: D-795899/1]", "values": [{"measurement": "Growth Percent", "setting": "786-0 (Renal Cancer)", "value": 2.41, "unit": "%"}, {"measurement": "Growth Percent", "setting": "A498 (Renal Cancer)", "value": "−26.88", "unit": "%"}, {"measurement": "Growth Percent", "setting": "A549/ATCC (Non-Small Cell Lung Cancer)", "value": 10.52, "unit": "%"}, {"measurement": "Growth Percent", "setting": "ACHN (Renal Cancer)", "value": 7.22, "unit": "%"}, {"measurement": "Growth Percent", "setting": "BT-549 (Breast Cancer)", "value": 2.72, "unit": "%"}, {"measurement": "Growth Percent", "setting": "CCRF-CEM (Leukemia)", "value": 6.82, "unit": "%"}, {"measurement": "Growth Percent", "setting": "COLO 205 (Colon Cancer)", "value": "−90.71", "unit": "%"}, {"measurement": "Growth Percent", "setting": "DU-145 (Prostate Cancer)", "value": 20.58, "unit": "%"}, {"measurement": "Growth Percent, Delta", "setting": "Delta of the mean graph", "value": 89.50, "unit": "%"}, {"measurement": "Growth Percent", "setting": "EKVX (Non-Small Cell Lung Cancer)", "value": 7.70, "unit": "%"}, {"measurement": "Growth Percent", "setting": "HCC-2998 (Colon Cancer)", "value": 5.78, "unit": "%"}, {"measurement": "Growth Percent", "setting": "HCT-15 (Colon Cancer)", "value": 7.50, "unit": "%"}, {"measurement": "Growth Percent", "setting": "HCT-116 (Colon Cancer)", "value": 3.65, "unit": "%"}, {"measurement": "Growth Percent", "setting": "HL-60(TB) (Leukemia)", "value": "−39.89", "unit": "%"}, {"measurement": "Growth Percent", "setting": "HOP-62 (Non-Small Cell Lung Cancer)", "value": "−9.87", "unit": "%"}, {"measurement": "Growth Percent", "setting": "HOP-92 (Non-Small Cell Lung Cancer)", "value": "−20.08", "unit": "%"}, {"measurement": "Growth Percent", "setting": "HS 578T (Breast Cancer)", "value": 4.39, "unit": "%"}, {"measurement": "Growth Percent", "setting": "HT29 (Colon Cancer)", "value": 3.77, "unit": "%"}, {"measurement": "Growth Percent", "setting": "IGROV1 (Ovarian Cancer)", "value": 31.40, "unit": "%"}, {"measurement": "Growth Percent", "setting": "K-562 (Leukemia)", "value": 1.63, "unit": "%"}, {"measurement": "Growth Percent", "setting": "KM12 (Colon Cancer)", "value": 5.04, "unit": "%"}, {"measurement": "Growth Percent", "setting": "LOX IMVI (Melanoma)", "value": 6.23, "unit": "%"}, {"measurement": "Growth Percent", "setting": "M14 (Melanoma)", "value": 6.30, "unit": "%"}, {"measurement": "Growth Percent", "setting": "MALME-3M (Melanoma)", "value": "−15.91", "unit": "%"}, {"measurement": "Growth Percent", "setting": "MCF7 (Breast Cancer)", "value": 3.01, "unit": "%"}, {"measurement": "Growth Percent", "setting": "MDA-MB-231/ATCC (Breast Cancer)", "value": "−31.51", "unit": "%"}, {"measurement": "Growth Percent", "setting": "MDA-MB-435 (Melanoma)", "value": 11.38, "unit": "%"}, {"measurement": "Growth Percent", "setting": "MDA-MB-468 (Breast Cancer)", "value": -5.00, "unit": "%"}, {"measurement": "Growth Percent", "setting": "MOLT-4 (Leukemia)", "value": "−11.7", "unit": "%"}, {"measurement": "Growth Percent, Mean", "setting": "Mean over the cell panel", "value": -1.21, "unit": "%"}, {"measurement": "Growth Percent", "setting": "NCI-H23 (Non-Small Cell Lung Cancer)", "value": 0.56, "unit": "%"}, {"measurement": "Growth Percent", "setting": "NCI-H226 (Non-Small Cell Lung Cancer)", "value": 13.90, "unit": "%"}, {"measurement": "Growth Percent", "setting": "NCI-H322M (Non-Small Cell Lung Cancer)", "value": 5.67, "unit": "%"}, {"measurement": "Growth Percent", "setting": "NCI-H460 (Non-Small Cell Lung Cancer)", "value": "−10.44", "unit": "%"}, {"measurement": "Growth Percent", "setting": "NCI-H522 (Non-Small Cell Lung Cancer)", "value": "−9.19", "unit": "%"}, {"measurement": "Growth Percent", "setting": "NCI/ADR-RES (Ovarian Cancer)", "value": 1.98, "unit": "%"}, {"measurement": "Growth Percent", "setting": "OVCAR-3 (Ovarian Cancer)", "value": 7.02, "unit": "%"}, {"measurement": "Growth Percent", "setting": "OVCAR-4 (Ovarian Cancer)", "value": 20.71, "unit": "%"}, {"measurement": "Growth Percent", "setting": "OVCAR-5 (Ovarian Cancer)", "value": 29.10, "unit": "%"}, {"measurement": "Growth Percent", "setting": "OVCAR-8 (Ovarian Cancer)", "value": 8.36, "unit": "%"}, {"measurement": "Growth Percent", "setting": "PC-3 (Prostate Cancer)", "value": 10.73, "unit": "%"}, {"measurement": "Growth Percent", "setting": "RPMI-8226 (Leukemia)", "value": "−14.54", "unit": "%"}, {"measurement": "Growth Percent", "setting": "RXF 393 (Renal Cancer)", "value": "−14.51", "unit": "%"}, {"measurement": "Growth Percent, Range", "setting": "Range over the cell panel", "value": 122.11, "unit": "%"}, {"measurement": "Growth Percent", "setting": "SF-268 (CNS Cancer)", "value": 16.59, "unit": "%"}, {"measurement": "Growth Percent", "setting": "SF-295 (CNS Cancer)", "value": "−22.60", "unit": "%"}, {"measurement": "Growth Percent", "setting": "SF-539 (CNS Cancer)", "value": 2.13, "unit": "%"}, {"measurement": "Growth Percent", "setting": "SK-MEL-2 (Melanoma)", "value": "−33.97", "unit": "%"}, {"measurement": "Growth Percent", "setting": "SK-MEL-28 (Melanoma)", "value": 28.00, "unit": "%"}, {"measurement": "Growth Percent", "setting": "SK-MIEL-5 (Melanoma)", "value": "−36.59", "unit": "%"}, {"measurement": "Growth Percent", "setting": "SK-OV-3 (Ovarian Cancer)", "value": "−13.54", "unit": "%"}, {"measurement": "Growth Percent", "setting": "SN12C (Renal Cancer)", "value": 7.93, "unit": "%"}, {"measurement": "Growth Percent", "setting": "SNB-19 (CNS Cancer)", "value": 22.58, "unit": "%"}, {"measurement": "Growth Percent", "setting": "SNB-75 (CNS Cancer)", "value": 4.92, "unit": "%"}, {"measurement": "Growth Percent", "setting": "SR (Leukemia)", "value": "−4.24", "unit": "%"}, {"measurement": "Growth Percent", "setting": "SW-620 (Colon Cancer)", "value": 13.14, "unit": "%"}, {"measurement": "Growth Percent", "setting": "T-47D (Breast Cancer)", "value": "−11.64", "unit": "%"}, {"measurement": "Growth Percent", "setting": "TK-10 (Renal Cancer)", "value": 9.29, "unit": "%"}, {"measurement": "Growth Percent", "setting": "U251 (CNS Cancer)", "value": 6.17, "unit": "%"}, {"measurement": "Growth Percent", "setting": "UACC-62 (Melanoma)", "value": 3.02, "unit": "%"}, {"measurement": "Growth Percent", "setting": "UACC-257 (Melanoma)", "value": "−7.16", "unit": "%"}, {"measurement": "Growth Percent", "setting": "UO-31 (Renal Cancer)", "value": "−1.27", "unit": "%"}]}
